The values below come from patent publication US7825092B2, “Dendroaspis natriuretic peptide for treatment of cancer” (University of South Florida, priority 2006, dated 2010).

Data set [1] deals with human glioblastoma cells. The experiment in a line: DNA synthesis by bromodeoxyuridine (BrdU) incorporation. It counts as cell-based. The note with it: 1 μM, 24 hours. The protocol: To investigate whether these peptide hormones were inhibiting DNA synthesis, bromodeoxyuridine (BrdU) incorporation into the human glioblastoma cells was utilized as previously described from our laboratory. BrdU was from BD Bioscience, San Jose, Calif. After 24 hours in culture with 1 μM of LANP, vessel dilator, kaliuretic peptide, ANP, and DNP, respectively, or with no peptide hormone (i.e., control), BrdU in a final concentration of 10 μM in the cell culture medium was added for 45 minutes, which is the time in which the cells are in the logarithmic phase of cell proliferation.
(§1) The data obtained in this investigation are illustrated as mean±SEM. Maximum changes in cell death (evaluated six times with ten areas of microscope slide evaluated each time) and DNA synthesis within groups were determined by a paired one-tailed Student's t test evaluated with statistical module of Excel software. To be considered statistically significant, we required a probability value to be <0.05 (95% confidence limits).

Data set [2] has as its system human prostate cancer cells. The note with it: cited from earlier work.
Data set [3] relates to human pancreatic adenocarcinomas. The note with it: in one week, athymic mice; cited from earlier work.
The subject of data set [4] is human colon cancer cells. The note with it: within 24 hours; cited from earlier work.
For data set [5] the following is noted: human or animal subjects; cited from earlier work.
For data set [6], the system named is human glioblastoma cells (ATCC number CRL-11543). Briefly: number of human glioblastoma cells counted after incubation with peptide hormones. The note with it: for decrease in number of human glioblastoma cells compared to control: at 96 hours (three days after 24 hours exposure); for number of glioblastoma cancer cells remaining (per field): 24 hours, mean±SEM, control 130±3 cells. It counts as cell-based. On the procedure:
A cell line (ATCC number CRL-11543) of human glioblastoma cells were purchased from American Type Culture Collection (ATCC, Manassas, Va.). This glioblastoma cell line was deposited by the Ludwig Institute for Cancer Research, University of California at San Diego, La Jolla, Calif. This glioblastoma cell line produces angiogensis inhibiting factor.
Propagation of these human glioblastoma cells was in Dulbecco's modified Eagle's medium with 4 mM L-glutamine adjusted to contain 1.5 g/L sodium bicarconate and 4.5 g/L glucose supplemented with 1 μg/ml tetracycline, […], and 10% fetal bovine serum (Atlanta Biologicals, Lawrenceville, Ga.) at a temperature of 37° C. in a […] environment as recommended by the ATCC. Cells were dispensed in new flasks with subculturing two to three times per week.
After the glioblastoma cells were subcultured for 24 hours they were then seeded to coverslips in 24-well plates (Nunclon™, Roskilde, Denmark) with 1 mL of the above media. There were 65,000 cells seeded to each coverslip. After 24 hours, the well plates were washed twice with phosphate-buffered saline to remove the fetal bovine serum. Removal of serum was carried out to completely remove all variables (EGF, etc.) present in serum in order that interpretation of any data obtained would be straightforward. After 24 hours of serum deprivation, media volume was reduced to 250 μL per well with, or without, the respective peptide hormones in dose-response curves with concentrations up to and including 100 μM (1% of this volume). Human glioblastoma cells were then incubated for various periods of time (24, 48, 72, and 96 hours). The number of glioblastoma carcinoma cells were then counted with a cell counter (Thomas Scientific, Swedesboro, N.J.) evaluating ten fields of the microscope slide at ×40 along the X-axis with an Olympus BH-2 microscope (Atlanta, Ga.). This evaluation was repeated on six separate occasions with the number of human glioblastoma cells reflecting 60 observations for each group, i.e., 60 observations for controls and 60 observations for each of the five groups with respective peptide hormones. The peptide hormones used in this investigation were from Phoenix Pharmaceuticals, Inc., Belmont, Calif. In the Results section, the number of cancer cells reported is the number of cells in each individual field. Ten fields were examined on each microscope slide. The results of the ten fields were pooled and the average of the ten fields is illustrated in the Results section.
as §1

The test system of data set [7] is human pancreatic adenocarcinoma cells. As to conditions: 1 μM; cited from earlier work.
The test system of data set [8] is small-cell lung cancer cells. The note with it: 1 μM; cited from earlier work.
Where [9] appears, read: 1 μM, at 48 hours (24 hours exposure only).
The mark [10] stands for this setting: 1 μM, at 72 hours (24 hours exposure only).
[11] abbreviates: 10 μM, at 48 hours (24 hours exposure only).
Where [12] appears, read: 10 μM, at 72 hours (24 hours exposure only).
The mark [13] stands for this setting: 100 μM, at 48 hours (24 hours exposure only).
The mark [14] stands for this setting: 100 μM, at 72 hours (24 hours exposure only).

Take vessel dilator: the “decrease in DNA synthesis” value in data set [1] was found to be 87%. In addition, the “decrease in number of human prostate cancer cells, up to” value in data set [2] (within 24 hours) is “up to 97%”. The “decrease in tumor volume” value in data set [3] is reported as 49%. Further, the “decrease in number of human colon cancer cells, up to” value in data set [4] is “up to 97%”. In data set [5], the side effect hypotension entry is “never”. For the same compound, the “decrease in number of human glioblastoma cells” value in data set [6] (1 μM, at 24 hours) was determined as 53%; in data set [6] (setting [9]) it was 53%; in data set [6] (setting [10]), 53%; in data set [6] (10 μM, at 24 hours), 60%; in data set [6] (setting [11]) it was 60%; in data set [6] (setting [12]), 60%. Also, the “decrease in number of human glioblastoma cells” value is on record as 75% in data set [6] (100 μM, at 24 hours); 76% in data set [6] (setting [13]); 76% in data set [6] (setting [14]). Further, the “decrease in number of human glioblastoma cells compared to control” value (“decrease in number … to control” for short) worked out at 43% in data set [6] (1 μM), 55% in data set [6] (10 μM) and 68% in data set [6] (100 μM). For the same compound, in data set [6] (100 μM), the “number of glioblastoma cancer cells remaining (per field)” value was 33±2 cells. In data set [6] (within 24 hours, FIG. 2), the “lower concentration causing the same decrease as the other peptide hormones” value worked out at 10 fold.
Take Dendroaspis natriuretic peptide [DNP]: the “decrease in DNA synthesis” value in data set [1] was 23%. Moreover, the “concentration where first began to have an effect on glioblastoma cells” value in data set [6] was 100 µM. The “decrease in number of human glioblastoma cells” value in data set [6] (setting [9]) was 1%; in data set [6] (setting [10]) it was 1%; in data set [6] (setting [11]) it was 7%; in data set [6] (setting [12]) it was 6%; in data set [6] (100 μM, at 24 hours), 17%; in data set [6] (setting [13]) it was 19%. Moreover, in data set [6] (setting [14]), the “decrease in number of human glioblastoma cells” value is on record as 19%. The “decrease in number … to control” value in data set [6] (1 μM) came out at 1%; in data set [6] (10 μM) it was 5%; in data set [6] (100 μM) it was 8%. In addition, the “difference in concentration with significant anticancer effects, DNP versus human cardiac hormones” value in data set [6] (DNP higher, human cardiac hormones lower) turned out to be 100 fold. For the same compound, in data set [6] (within 24 hours, maximum effect, concentration not given), the “killing / elimination of human glioblastoma cells, up to” value is recorded as “up to 19%”.
Take `CC[C@H](C)[C@@H]1NC(=O)[C@H](CCCNC(=N)N)NC(=O)[C@H](CC(=O)O)NC(=O)[C@H](CCSC)NC(=O)[C@H](CCCNC(=N)N)NC(=O)CNC(=O)CNC(=O)[C@H](Cc2ccccc2)NC(=O)[C@@H](NC(=O)[C@H](CO)NC(=O)[C@H](CO)NC(=O)[C@H](CCCNC(=N)N)NC(=O)[C@H](CCCNC(=N)N)NC(=O)[C@H](CC(C)C)NC(=O)[C@@H](N)CO)CSSC[C@@H](C(=O)N[C@@H](CC(N)=O)C(=O)N[C@@H](CO)C(=O)N[C@@H](Cc2ccccc2)C(=O)N[C@@H](CCCNC(=N)N)C(=O)N[C@@H](Cc2ccc(O)cc2)C(=O)O)NC(=O)CNC(=O)[C@H](CC(C)C)NC(=O)CNC(=O)[C@H](CO)NC(=O)[C@H](CCC(N)=O)NC(=O)[C@H](C)NC(=O)CNC1=O` [ANP, atrial natriuretic peptide]: the “decrease in DNA synthesis” value in data set [1] came to 79%. Further, the side effect hypotension entry in data set [5] is “observed”. The “decrease in number … to control” value turned out to be 24% in data set [6] (1 μM), 43% in data set [6] (10 μM) and 60% in data set [6] (100 μM).
For the compound “long acting natriuretic peptide (NPMYNAVSNADLMDFKNLLDHLEEKMPLED; Long-acting natriuretic peptide; UniProt P01160 26-55, looked up, fragment) [LANP, cardiac hormone, first 30 amino acids of the 126 a.a. atrial natriuretic peptide prohormone]”, the “decrease in DNA synthesis” value in data set [1] is 65%. In addition, the side effect hypotension result in data set [5] was “never”. For the same compound, the “decrease in number of human glioblastoma cells” value in data set [6] (1 μM, at 24 hours) amounted to 31%; in data set [6] (setting [9]), 31%; in data set [6] (setting [10]) it was 31%; in data set [6] (10 μM, at 24 hours) it was 49%; in data set [6] (setting [11]), 50%; in data set [6] (setting [12]), 50%. The “decrease in number of human glioblastoma cells” value is given as 65% in data set [6] (100 μM, at 24 hours); 65% in data set [6] (setting [13]); 66% in data set [6] (setting [14]). The “decrease in number … to control” value in data set [6] (1 μM) worked out at 24%; in data set [6] (10 μM), 39%; in data set [6] (100 μM), 61%. Besides, the “number of glioblastoma cancer cells remaining (per field)” value in data set [6] (100 μM) turned out to be 43±2 cells.
As for “brain natriuretic peptide [BNP, reference compound]”, in data set [1], the “decrease in DNA synthesis” value was 23%.
With kaliuretic peptide, the “decrease in DNA synthesis” value in data set [1] is on record as 77%. Also, the “decrease in prostate adenocarcinoma cells” value in data set [2] (1 μM) is 30%. Moreover, in data set [7], the “decrease in human pancreatic adenocarcinoma cells” value is 37%. For the same compound, the “decrease in small-cell lung cancer cells” value in data set [8] is reported as 30%. For the same compound, the side effect hypotension result in data set [5] is listed as “never”. Further, the “decrease in number of human glioblastoma cells” value in data set [6] (1 μM, at 24 hours) was 33%; in data set [6] (1 μM, at 24 hours, listed as Kaliuretic peptide), 32%; in data set [6] (setting [9]) it was 32%; in data set [6] (setting [10]), 32%; in data set [6] (10 μM, at 24 hours), 51%; in data set [6] (setting [11]), 51%. Besides, the “decrease in number of human glioblastoma cells” value is 52% in data set [6] (setting [12]); 68% in data set [6] (100 μM, at 24 hours); 68% in data set [6] (setting [13]); 68% in data set [6] (setting [14]). Further, the “decrease in number … to control” value in data set [6] (1 μM) amounted to 25%; in data set [6] (10 μM), 40%; in data set [6] (100 μM), 64%. The “number of glioblastoma cancer cells remaining (per field)” value in data set [6] (100 μM) was found to be 43±2 cells.
